{"source": "patent US20050027113A1", "about": "“Compositions and methods relating to the daptomycin biosynthetic gene cluster” (priority 2001, published 2005)", "origin": "cited, not measured here", "key": {"[1]": {"settings": "administration of daptomycin and an aminoglycoside"}}}
{"smiles": "CCCCCCCCCC(=O)N[C@@H](Cc1c[nH]c2ccccc12)C(=O)N[C@H](CC(N)=O)C(=O)N[C@@H](CC(=O)O)C(=O)N[C@@H]1C(=O)NCC(=O)N[C@@H](CCCN)C(=O)N[C@@H](CC(=O)O)C(=O)N[C@H](C)C(=O)N[C@@H](CC(=O)O)C(=O)NCC(=O)N[C@H](CO)C(=O)N[C@@H]([C@H](C)CC(=O)O)C(=O)N[C@@H](CC(=O)c2ccccc2N)C(=O)O[C@@H]1C", "note": "[daptomycin]", "values": [{"measurement": "antibacterial activity against classically resistant strains versus classically susceptible strains", "setting": "gram-positive organisms; in vitro experiments", "result": "comparable"}, {"measurement": "minimum inhibitory concentration (MIC) value against susceptible strains, relative to vancomycin", "setting": "gram-positive organisms; susceptible strains, fold lower than vancomycin", "result": "~4", "unit": "fold"}, {"measurement": "bactericidal activity against gram-positive organisms", "setting": "gram-positive organisms; unlike glycopeptide antibiotics", "result": "rapid, concentration-dependent bactericidal activity"}, {"measurement": "effect on renal toxicity caused by a co-administered aminoglycoside", "setting": "[1]", "result": "may ameliorate renal toxicity caused by the aminoglycoside"}]}
